Laboratory results published in patent publication US20170044597A1, “ASSAY METHOD AND KIT FOR NUCLEIC ACID BINDING PROTEIN” (Hiroshima University, priority 2008, published 2017).

Key:
SP1/oligonucleotide = experiment: Negative control of the screening system: strand exchange of a nucleic acid set that does not bind to NF-κB (Example 5); conditions: 0 to 5 nmol aurothioglucose, duplexes 05C/08 and 06B/07 as negative control, same reaction (FIG. 9)
Source text: A synthetic oligonucleotide SP1-08 and a synthetic oligonucleotide SP1-05-5C3 labeled at the 5′ terminus with Cy3, or a synthetic oligonucleotide SP1-07 and a synthetic oligonucleotide SP1-06-3B1 labeled at the 3′ terminus with BHQ1 were mixed to prepare duplexes 05C/08 and 06B/07 having a single-stranded terminus under the same conditions as in Example 1. The duplexes 05C/08 and 06B/07 have an SP1 binding sequence.
(§1) To a mixed solution of 31F/42 and 05C/08 (50 fmol each), 0 to 5 nmol of aurothioglucose and 0.5 pmol of recombinant human NFκB p50 (Promega Corp.) were added, and further a mixed solution of 32D/41 and 06B/07 (200 fmol each) was added. The resulting solution was mixed and reacted at 25° C. for 30 minutes. […] The fluorescence values of fluorescein and Cy3 were measured using a fluorescence plate reader Ultra (Tecan Group Ltd.). The fluorescein was excited at 485 nm, and its fluorescence was measured at 535 nm. The Cy3 was excited at 535 nm and its fluorescence was measured at 595 nm.

[1] = target: T1, recombinant human NFκB p50 (Homo sapiens, UniProt P19838); experiment: Detection of NF-κB (p50) inhibitory effect of aurothioglucose (Example 5); type: binding; conditions: 0 to 5 nmol aurothioglucose, 0.5 pmol NFκB p50, duplexes 31F/42 and 32D/41, 25° C. 30 minutes, relative to absence of aurothioglucose (FIG. 9)
T1 construct: recombinant human NFκB p50 (Promega Corp.); purchased Promega Corp
T1 sequence (P19838 1-433 limits assumed): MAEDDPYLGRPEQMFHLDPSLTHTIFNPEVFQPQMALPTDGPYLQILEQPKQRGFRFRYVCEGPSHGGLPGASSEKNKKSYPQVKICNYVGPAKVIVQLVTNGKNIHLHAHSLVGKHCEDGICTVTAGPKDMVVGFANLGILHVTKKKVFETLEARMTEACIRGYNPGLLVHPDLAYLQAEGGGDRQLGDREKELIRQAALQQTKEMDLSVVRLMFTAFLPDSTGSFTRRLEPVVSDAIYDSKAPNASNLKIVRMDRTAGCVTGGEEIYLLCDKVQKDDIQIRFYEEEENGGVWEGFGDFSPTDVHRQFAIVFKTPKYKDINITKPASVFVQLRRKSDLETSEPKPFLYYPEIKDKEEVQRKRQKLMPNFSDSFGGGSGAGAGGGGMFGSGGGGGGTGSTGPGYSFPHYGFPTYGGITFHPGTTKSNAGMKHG
Source text: A synthetic oligonucleotide NFkB-42 and a synthetic oligonucleotide NFkB-31-5F labeled at the 5′ terminus with fluorescein, or a synthetic oligonucleotide NFkB-41 and a synthetic oligonucleotide NFkB-32-3D labeled at the 3′ terminus with DABCYL were mixed to prepare duplexes 31F/42 and 32D/41 having a single-stranded terminus under the same conditions as in Example 1. The duplexes 31F/42 and 32D/41 have an NF-κB binding sequence.
as §1

NF-κB = conditions: Yang et al. FEBS letters 1995, 361, 89-96; cited from earlier work
recombinant human SP1 = target: T2, recombinant human SP1 (Homo sapiens, UniProt P08047); experiment: Effect of mismatch introduction on suppression of strand exchange, SP1 (Example 4-1); type: binding; conditions: 40 fmol SP05C/08B, 2.5 pmol SP1, 80 fmol of the added duplex or single strand, 25° C. 120 minutes (FIG. 7)
T2 construct: purchased Promega Corp
Source text: A synthetic oligonucleotide SP1-05-5C3 labeled at the 5′ terminus with Cy3 and a synthetic oligonucleotide SP1-08-3B1 labeled at the 3′ terminus with BHQ1 were mixed to prepare a duplex SP05C/08B having a single-stranded terminus under the same conditions as in Example 1. Moreover, synthetic oligonucleotides SP1-06 and SP1-07, synthetic oligonucleotides SP1-21 and SP1-22, or synthetic oligonucleotides SP1-23 and SP1-24 were mixed to prepare duplexes SP06/07, SP22/21, and SP24/23 having a single-stranded terminus under the same conditions as in Example 1. These duplexes have an SP1 binding sequence.
40 fmol of SP05C/08B and 2.5 pmol of recombinant human SP1 (Promega Corp.) were mixed into a reaction solution (10 mM HEPES-NaOH pH 7.9, 50 mM KCl, 0.1 mM EDTA, 5 mM DTT, 10% glycerol, 0.05% IGEPAL CA-630, 15 μL) and reacted at 25° C. for 30 minutes. 80 fmol of SP06/07, SP22/21, SP24/23, SP1-07, SP1-21, or SP1-23 was added thereto, and […] of the resulting mixture was then reacted at 25° C. for 120 minutes. The fluorescence value of Cy3 was measured using a fluorescence plate reader Ultra (Tecan Group Ltd.).

T2 sequence (P08047 whole entry): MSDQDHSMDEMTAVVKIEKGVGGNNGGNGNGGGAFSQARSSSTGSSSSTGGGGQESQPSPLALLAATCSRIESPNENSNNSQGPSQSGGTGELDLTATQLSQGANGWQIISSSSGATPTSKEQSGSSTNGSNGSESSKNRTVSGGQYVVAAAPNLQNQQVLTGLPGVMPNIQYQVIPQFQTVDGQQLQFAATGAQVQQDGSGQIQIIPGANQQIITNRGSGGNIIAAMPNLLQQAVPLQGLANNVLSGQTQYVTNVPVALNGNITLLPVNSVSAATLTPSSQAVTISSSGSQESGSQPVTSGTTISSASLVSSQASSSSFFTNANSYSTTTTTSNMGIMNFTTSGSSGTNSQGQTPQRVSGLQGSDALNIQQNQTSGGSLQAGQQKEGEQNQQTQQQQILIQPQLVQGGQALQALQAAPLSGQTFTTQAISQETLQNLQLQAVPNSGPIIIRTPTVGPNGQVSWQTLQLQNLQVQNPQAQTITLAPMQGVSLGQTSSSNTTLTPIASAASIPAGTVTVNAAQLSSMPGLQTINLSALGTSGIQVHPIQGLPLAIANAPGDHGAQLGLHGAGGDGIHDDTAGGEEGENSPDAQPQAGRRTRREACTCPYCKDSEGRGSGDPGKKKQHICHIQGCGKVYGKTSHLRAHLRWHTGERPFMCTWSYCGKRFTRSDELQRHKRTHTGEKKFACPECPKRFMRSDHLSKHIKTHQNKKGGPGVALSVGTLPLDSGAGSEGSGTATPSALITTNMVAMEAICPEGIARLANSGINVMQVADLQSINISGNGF

Row | Molecule | relative fluorescence value of the SP1/oligonucleotide (SP1/oligonucleotide) | relative fluorescence value of the NF-κB/oligonucleotide complex [1] | inhibition of NF-κB (NF-κB) | effect of addition of SP1 on increase in fluorescence value (Cy3) caused by strand exchange (recombinant human SP1)
1 | OC[C@H]1O[C@H]([S-])[C@H](O)[C@@H](O)[C@@H]1O.[Au+] [aurothioglucose, Aurothioglucose] | hardly influenced | decreased depending on the concentration of aurothioglucose | known to inhibit NF-κB | 
2 | SP1-07: synthetic oligonucleotide 5′ ATTCGATCGGGGCGGGGCGACGAGC AGGCTACTCTCTGACCG 3′ (SEQ ID NO: 31) (DNA ATTCGATCGGGGCGGGGCGACGAGCAGGCTACTCTCTGACCG; DNA, backbone and methylation of C not given here) |  |  |  | suppressed increase in fluorescence value
